The source of these data is patent US9643991B2, “Process for preparing a novel crystalline form of emamectin benzoate and use the same” (ROTAM AGROCHEM INTERNATIONAL CO., LTD, priority 2015, dated 2017).

A short description of series [1]: Residue of diluted SG formulations passed through the wet sieve. It counts as physicochemical. How it is done: The procedure in Example 5 was repeated by using emamectin benzoate crystalline forms A and B mentioned in U.S. Pat. No. 6,486,195.
SG samples prepared in Examples 5 and 6 were diluted with water and their residues were compared by passing through the wet sieve.

A short description of series [2]: Stability of the crystalline modification during prolonged storage. It counts as physicochemical.
The conditions of series [3]: cited from earlier work.
The subject of series [4] is Lepidoptera pole larvae and many other pests. Particulars: cited from earlier work.

On to “4″-deoxy-4″-epi-methylamino avermectin B1a/B1b [Crystalline forms V]”, for which the “Residue, Dilution factor 100” value in series [1] (SG samples of Examples 5 and 6 diluted with water, wet sieve, dilution factor 100) is reported as “No residue”. In series [1] (SG samples of Examples 5 and 6 diluted with water, wet sieve, dilution factor 1000), the “Residue, Dilution factor 1000” value is “No residue”. Further, the Stability after dilution result in series [1] (after dilution, compared to other crystal forms) is “extremely stable after dilution”. Also, the “Conversion to other crystalline modifications” value in series [2] is “does not convert to other crystalline modifications”.
Consider “4″-deoxy-4″-epi-methylamino avermectin B1a/B1b [Emamectin benzoate]”, for which, in series [3] (acetone), the Solubility in acetone entry is given as “soluble”. In addition, the Solubility in ethanol entry in series [3] (ethanol) is reported as “soluble”. Besides, the Solubility in hexane result in series [3] (hexane) is recorded as “insoluble”. In series [3] (methanol), the Solubility in methanol entry is given as “soluble”. In addition, the Solubility in water entry in series [3] (water) is given as “slightly soluble”. Besides, the “Insecticidal activity higher than other avermectin pesticides” value in series [4] (compared with abamectin, doramectin, ivermectin) is on record as 1-3 orders of magnitude. The Effective dose in series [4] (very low doses) was 0.084-2 g/ha.
